Assay in all cases: radioligand saturation binding, dextran-coated charcoal separation
For assay [1], the target named is T1, corticosteroid-binding globulin (CBG), deer mouse (Peromyscus maniculatus, UniProt A0A6J0EC89).
T1 construct: gene Serpina6; native protein in charcoal-stripped plasma, not purified
T1 sequence (A0A6J0EC89 23-402): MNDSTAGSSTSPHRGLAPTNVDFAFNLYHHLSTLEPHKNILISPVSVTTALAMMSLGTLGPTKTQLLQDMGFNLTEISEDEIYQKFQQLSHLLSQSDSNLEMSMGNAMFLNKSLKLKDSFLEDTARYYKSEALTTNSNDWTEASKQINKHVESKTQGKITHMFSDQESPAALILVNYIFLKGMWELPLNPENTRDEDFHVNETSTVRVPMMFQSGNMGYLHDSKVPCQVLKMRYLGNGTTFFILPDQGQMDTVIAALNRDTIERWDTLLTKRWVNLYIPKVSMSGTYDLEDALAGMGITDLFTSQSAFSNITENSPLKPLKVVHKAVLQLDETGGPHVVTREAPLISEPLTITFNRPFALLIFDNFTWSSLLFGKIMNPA
Particulars: labelled compound ([1,2,6,7-3H]corticosterone); 37 °C, ≥4 h, PBS with gelatin; separation at 0 °C; plasma 1/200; error SEM.
Description: radioligand saturation binding, dextran-coated charcoal separation on corticosteroid-binding globulin (CBG), deer mouse

Assay [2] concerns the target T2, corticosteroid-binding globulin (CBG), meadow vole (Microtus pennsylvanicus, UniProt Z9TXB6IQC5).
T2 construct: native protein in charcoal-stripped plasma, not purified
T2 sequence (Z9TXB6IQC5 21-398): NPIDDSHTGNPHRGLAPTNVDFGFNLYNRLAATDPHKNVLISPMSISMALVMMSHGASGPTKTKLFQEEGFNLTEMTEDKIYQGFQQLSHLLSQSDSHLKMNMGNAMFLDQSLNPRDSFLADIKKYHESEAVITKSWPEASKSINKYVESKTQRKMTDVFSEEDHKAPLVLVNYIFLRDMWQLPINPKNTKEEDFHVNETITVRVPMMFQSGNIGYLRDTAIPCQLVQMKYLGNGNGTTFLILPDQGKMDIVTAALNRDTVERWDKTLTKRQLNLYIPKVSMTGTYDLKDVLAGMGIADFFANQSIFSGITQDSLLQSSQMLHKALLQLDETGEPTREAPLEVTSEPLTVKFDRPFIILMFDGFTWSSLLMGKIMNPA
As to conditions: labelled compound ([1,2,6,7-3H]corticosterone); 37 °C, ≥4 h, PBS with gelatin; separation at 0 °C; plasma 1/50; mean of two runs; error SEM.
Description: radioligand saturation binding, dextran-coated charcoal separation on corticosteroid-binding globulin (CBG), meadow vole

In assay [3] the target is T3, corticosteroid-binding globulin (CBG), cheetah (Acinonyx jubatus, UniProt A0A6I9ZWD2).
T3 construct: gene LOC106977455; native protein in charcoal-stripped serum (Toronto Zoo), not purified
T3 sequence (A0A6I9ZWD2 23-404): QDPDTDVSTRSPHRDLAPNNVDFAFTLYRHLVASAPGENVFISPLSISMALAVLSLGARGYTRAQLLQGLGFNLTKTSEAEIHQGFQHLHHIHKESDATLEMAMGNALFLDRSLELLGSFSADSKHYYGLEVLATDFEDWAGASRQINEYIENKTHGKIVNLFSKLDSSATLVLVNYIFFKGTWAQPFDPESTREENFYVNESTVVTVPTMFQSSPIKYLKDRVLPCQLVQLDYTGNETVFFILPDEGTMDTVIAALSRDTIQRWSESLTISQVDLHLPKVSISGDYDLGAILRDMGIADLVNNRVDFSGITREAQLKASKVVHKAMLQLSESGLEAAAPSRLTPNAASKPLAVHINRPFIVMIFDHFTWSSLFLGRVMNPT
As to conditions: labelled compound ([1,2,6,7-3H]cortisol); 37 °C, ≥4 h, PBS with gelatin; separation at 0 °C; serum 1/50; error SEM.
Description: radioligand saturation binding, dextran-coated charcoal separation on corticosteroid-binding globulin (CBG), cheetah

Assay [4] deals with T4, corticosteroid-binding globulin (CBG), alpaca (Vicugna pacos, UniProt A0A6I9IEG0).
T4 construct: gene SERPINA6; native protein in charcoal-stripped serum (Toronto Zoo), not purified
T4 sequence (A0A6I9IEG0 18-405): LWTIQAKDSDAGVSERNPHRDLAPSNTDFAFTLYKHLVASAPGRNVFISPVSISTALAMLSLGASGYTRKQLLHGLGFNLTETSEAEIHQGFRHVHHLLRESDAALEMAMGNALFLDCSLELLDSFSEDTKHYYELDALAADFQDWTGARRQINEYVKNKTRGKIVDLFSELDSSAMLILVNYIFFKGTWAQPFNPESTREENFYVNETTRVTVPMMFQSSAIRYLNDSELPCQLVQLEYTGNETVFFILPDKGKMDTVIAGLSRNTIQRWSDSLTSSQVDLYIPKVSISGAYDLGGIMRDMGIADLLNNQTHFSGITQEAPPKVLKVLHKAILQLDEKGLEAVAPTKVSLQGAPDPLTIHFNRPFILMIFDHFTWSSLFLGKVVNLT
As to conditions: labelled compound ([1,2,6,7-3H]cortisol); 37 °C, ≥4 h, PBS with gelatin; separation at 0 °C; serum 1/50; non-specific binding subtracted; error SEM.
Description: radioligand saturation binding, dextran-coated charcoal separation on corticosteroid-binding globulin (CBG), alpaca

Assay [5] addresses T5, corticosteroid-binding globulin (CBG), Bactrian camel (Camelus bactrianus, UniProt A0A9W3H1V5).
T5 construct: gene LOC105079894; native protein in charcoal-stripped serum (Toronto Zoo), not purified
T5 sequence (A0A9W3H1V5 24-405 limits assumed): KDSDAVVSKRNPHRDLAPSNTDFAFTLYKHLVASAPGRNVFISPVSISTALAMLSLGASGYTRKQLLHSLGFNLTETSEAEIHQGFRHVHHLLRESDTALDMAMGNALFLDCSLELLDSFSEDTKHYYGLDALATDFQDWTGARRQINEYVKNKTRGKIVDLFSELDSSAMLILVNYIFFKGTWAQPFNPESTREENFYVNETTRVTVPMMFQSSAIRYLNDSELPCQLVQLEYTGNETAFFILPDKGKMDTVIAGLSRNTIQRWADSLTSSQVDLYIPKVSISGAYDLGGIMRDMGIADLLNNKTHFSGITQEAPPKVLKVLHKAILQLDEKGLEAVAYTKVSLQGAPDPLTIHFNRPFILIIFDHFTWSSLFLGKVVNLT
As to conditions: labelled compound ([1,2,6,7-3H]cortisol); 37 °C, ≥4 h, PBS with gelatin; separation at 0 °C; serum 1/50; non-specific binding subtracted; error SEM.
Description: radioligand saturation binding, dextran-coated charcoal separation on corticosteroid-binding globulin (CBG), Bactrian camel

For assay [6], the target named is T6, corticosteroid-binding globulin (CBG), Soay sheep (Ovis aries, UniProt P49920).
T6 construct: gene SERPINA6; native protein in charcoal-stripped plasma, not purified
T6 sequence (P49920 23-430): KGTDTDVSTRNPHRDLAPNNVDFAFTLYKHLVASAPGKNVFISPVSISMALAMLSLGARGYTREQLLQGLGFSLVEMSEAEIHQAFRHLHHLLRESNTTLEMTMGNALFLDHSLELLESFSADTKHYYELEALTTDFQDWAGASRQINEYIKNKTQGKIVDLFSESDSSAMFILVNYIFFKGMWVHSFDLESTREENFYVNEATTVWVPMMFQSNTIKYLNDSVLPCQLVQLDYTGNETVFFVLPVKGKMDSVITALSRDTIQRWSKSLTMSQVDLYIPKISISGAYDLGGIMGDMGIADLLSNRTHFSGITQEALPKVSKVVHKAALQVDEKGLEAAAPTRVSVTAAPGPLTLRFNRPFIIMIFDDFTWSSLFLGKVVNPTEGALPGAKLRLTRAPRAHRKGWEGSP
Particulars: labelled compound ([1,2,6,7-3H]cortisol); 37 °C, ≥4 h, PBS with gelatin; separation at 0 °C; plasma 1/50; error SEM.
Description: radioligand saturation binding, dextran-coated charcoal separation on corticosteroid-binding globulin (CBG), Soay sheep

The target in assay [7] is T7, corticosteroid-binding globulin (CBG), Arctic wolf (Canis lupus, UniProt A0A8I3MUM2).
T7 construct: gene SERPINA6; native protein in charcoal-stripped serum (Toronto Zoo), not purified
T7 sequence (A0A8I3MUM2 23-404): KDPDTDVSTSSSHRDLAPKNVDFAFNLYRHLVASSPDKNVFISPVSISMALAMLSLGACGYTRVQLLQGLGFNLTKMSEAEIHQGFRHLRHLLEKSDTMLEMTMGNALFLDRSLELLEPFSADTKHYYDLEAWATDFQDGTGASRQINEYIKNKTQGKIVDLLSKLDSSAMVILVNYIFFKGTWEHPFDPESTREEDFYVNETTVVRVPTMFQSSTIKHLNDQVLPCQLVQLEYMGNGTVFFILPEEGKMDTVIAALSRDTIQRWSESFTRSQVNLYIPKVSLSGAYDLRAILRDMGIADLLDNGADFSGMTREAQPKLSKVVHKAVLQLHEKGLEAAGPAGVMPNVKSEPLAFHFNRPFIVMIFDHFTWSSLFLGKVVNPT
Particulars: labelled compound ([1,2,6,7-3H]cortisol); 37 °C, ≥4 h, PBS with gelatin; separation at 0 °C; serum 1/50; non-specific binding subtracted; error SEM.
Description: radioligand saturation binding, dextran-coated charcoal separation on corticosteroid-binding globulin (CBG), Arctic wolf

The target in assay [8] is T8, corticosteroid-binding globulin (CBG), Siberian tiger (Panthera tigris, UniProt A0A8C9K299).
T8 construct: native protein in charcoal-stripped serum (Toronto Zoo), not purified
T8 sequence (A0A8C9K299 23-403): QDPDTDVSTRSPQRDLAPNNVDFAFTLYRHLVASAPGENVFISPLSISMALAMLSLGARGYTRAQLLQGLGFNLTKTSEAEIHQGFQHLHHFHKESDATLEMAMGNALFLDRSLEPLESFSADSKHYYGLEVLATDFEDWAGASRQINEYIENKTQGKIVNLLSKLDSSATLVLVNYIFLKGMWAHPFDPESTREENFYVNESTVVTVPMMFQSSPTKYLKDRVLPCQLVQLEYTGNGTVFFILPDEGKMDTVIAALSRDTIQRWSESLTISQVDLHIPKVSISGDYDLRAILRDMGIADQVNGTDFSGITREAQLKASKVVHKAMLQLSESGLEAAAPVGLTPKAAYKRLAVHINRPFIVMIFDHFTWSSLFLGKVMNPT
As to conditions: labelled compound ([1,2,6,7-3H]cortisol); 37 °C, ≥4 h, PBS with gelatin; separation at 0 °C; serum 1/50; non-specific binding subtracted; error SEM.
Description: radioligand saturation binding, dextran-coated charcoal separation on corticosteroid-binding globulin (CBG), Siberian tiger

The target of assay [9] is T9, corticosteroid-binding globulin (CBG), Arctic ground squirrel (Urocitellus parryii, UniProt A0A8D2GQE2).
T9 construct: gene SERPINA6; native protein in charcoal-stripped plasma, not purified
T9 sequence (A0A8D2GQE2 23-403): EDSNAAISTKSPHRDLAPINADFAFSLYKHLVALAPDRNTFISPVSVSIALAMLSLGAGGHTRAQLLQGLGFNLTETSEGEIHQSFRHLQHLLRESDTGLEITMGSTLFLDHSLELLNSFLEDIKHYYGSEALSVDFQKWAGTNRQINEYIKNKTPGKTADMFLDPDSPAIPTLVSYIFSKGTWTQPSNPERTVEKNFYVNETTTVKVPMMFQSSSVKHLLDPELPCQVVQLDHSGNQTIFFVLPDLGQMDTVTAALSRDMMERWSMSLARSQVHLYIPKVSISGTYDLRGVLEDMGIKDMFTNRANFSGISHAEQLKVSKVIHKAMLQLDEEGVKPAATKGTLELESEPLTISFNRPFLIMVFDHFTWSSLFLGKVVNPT
As to conditions: labelled compound ([1,2,6,7-3H]cortisol); 37 °C, ≥4 h, PBS with gelatin; separation at 0 °C; plasma 1/50; mean of four runs; error SEM.
Description: radioligand saturation binding, dextran-coated charcoal separation on corticosteroid-binding globulin (CBG), Arctic ground squirrel

Take `C[C@]12C[C@H](O)[C@H]3[C@@H](CCC4=CC(=O)CC[C@@]43C)[C@@H]1CC[C@@H]2C(=O)CO` [B, corticosterone]: the Kd in assay [1] was 4.9 ± 0.61 nM; in assay [2], 5.4 ± 1.2 nM.
In the case of `C[C@]12CCC(=O)C=C1CC[C@@H]1[C@@H]2[C@@H](O)C[C@@]2(C)[C@H]1CC[C@]2(O)C(=O)CO` [F, cortisol], the Kd stood at 8 ± 2.4 nM in assay [3]; 0.6 ± 0.15 nM in assay [4]; 1 ± 0.16 nM in [5]; 1.7 ± 0.55 nM in [6]; 0.8 ± 0.11 nM in [7]; 0.7 ± 0.19 nM in assay [8]. The Kd in [9] is 4 ± 0.4 nM.

Source of the values: article PMC4778445, “Measurement of free glucocorticoids: quantifying corticosteroid-binding globulin binding affinity and its variation within and among mammalian species” (Conservation Physiology, 2015).
